Results as given in patent publication US3993642A, “Penicillins” (Bayer Aktiengesellschaft, priority 1973, dated 1976).

What was measured:
[1] = tested on: Pseudomonas Walter; experiment: MIC, test tube series dilution test; conditions: 24 hours, 37°C, liquid medium
[2] = Solubility noted during working up; format: physicochemical
Description: Yield 42% of sodium D(-) -α-[(3-oxo-4-methyl-pyrazolidin-1-yl)-carbonylamino]-benzylpenicillin.

[3] = tested on: Pseudomonas F 41; experiment: MIC, test tube series dilution test; format: cell-based; conditions: 24 hours, 37°C, liquid medium
Description: |D(+) Dextrose (Merck) 10 g

[4] = tested on: Borrelia sp.; experiment: Freedom from cloudiness in Muller-Hinton broth; format: cell-based; conditions: 100 μg/ml, 24 hours
[5] = tested on: Serratia sp.; experiment: Freedom from cloudiness in Muller-Hinton broth; format: cell-based; conditions: 100 μg/ml, 24 hours
[6] = tested on: Pseudomonas aeruginosa sp.; experiment: Freedom from cloudiness in Muller-Hinton broth; format: cell-based; conditions: 100 μg/ml, 24 hours
[7] = tested on: Proteus, indole-negative, sp.; experiment: Freedom from cloudiness in Muller-Hinton broth; format: cell-based; conditions: 100 μg/ml, 24 hours
[8] = tested on: Corynebacterium diphteriae gravis; experiment: Freedom from cloudiness in Muller-Hinton broth; format: cell-based; conditions: 100 μg/ml, 24 hours
[9] = tested on: Klebsiella K 10; experiment: Freedom from cloudiness in Muller-Hinton broth; format: cell-based; conditions: 100 μg/ml, 24 hours
[10] = tested on: Haemophilus influenzae; experiment: Freedom from cloudiness in Muller-Hinton broth; format: cell-based; conditions: 100 μg/ml, 24 hours
[11] = tested on: Streptococcus pyogenes W; experiment: Freedom from cloudiness in Muller-Hinton broth; format: cell-based; conditions: 100 μg/ml, 24 hours
[12] = tested on: Bordetella bronchiseptica; experiment: Freedom from cloudiness in Muller-Hinton broth; format: cell-based; conditions: 100 μg/ml, 24 hours
[13] = tested on: Staphyloccus aureus; experiment: Animal experiments with white mice infected intraperitoneally; format: in vivo, white mice of strain CF1; conditions: subcutaneously, 1 × (1 administration, 30 minutes after infection)
Description: (§1) The white mice of strain CF1 were infected intraperitoneally with the species of bacteria indicated in each case. |Animal experiments with white mice: |Determination of the ED50 after 24 hours. | Dose in units of the | penicillin compound of | Example 1 per kg, given |Germ subcutaneously |Therapy: | 1 administration: | 30 minutes after infection The ED50 is a dose at which 50% of the infected animals still survive after 24 hours.

[14] = tested on: E. coli C 165; experiment: as above; format: in vivo, white mice of strain CF1; conditions: subcutaneously, 1 × (1 administration, 30 minutes after infection)
Description: as §1

[15] = tested on: Proteus, indole-positive, sp.; experiment: Freedom from cloudiness in Muller-Hinton broth; format: cell-based; conditions: 100 μg/ml, 24 hours
[16] = tested on: Klebsiella pneum.; experiment: MIC, test-tube dilution method
[17] = tested on: Aeromonas hydrophila sp.; experiment: Freedom from cloudiness in Muller-Hinton broth; format: cell-based; conditions: 100 μg/ml, 24 hours
[18] = tested on: E.coli C 165; experiment: Freedom from cloudiness in Muller-Hinton broth; format: cell-based; conditions: 100 μg/ml, 24 hours
[19] = tested on: Enterococcus ATCC 9790; experiment: MIC, test-tube dilution method
[20] = tested on: Neisseria catarrhalis sp.; experiment: Freedom from cloudiness in Muller-Hinton broth; format: cell-based; conditions: 100 μg/ml, 24 hours
[21] = tested on: Pseudomonas aeruginosa W; experiment: Animal experiments with white mice infected intraperitoneally; format: in vivo, white mice of strain CF1; conditions: subcutaneously, 4 × (per administration; 30 minutes, 2, 4 and 6 hours after infection)
Description: as §1, with “4 administrations:” for “1 administration:”, “minutes, 2 hours, 4 hours | and 6 hours” for “minutes”

[22] = tested on: Pseudomonas aeruginosa F 41; experiment: as above; format: in vivo, white mice of strain CF1; conditions: subcutaneously, 4 × (per administration; 30 minutes, 2, 4 and 6 hours after infection)
Description: as §1, with “4 administrations:” for “1 administration:”, “minutes, 2 hours, 4 hours | and 6 hours” for “minutes”

[23] = tested on: Clostridium botulinium; format: cell-based; conditions: 100 μg/ml, 24 hours
[24] = tested on: E.coli 26/6; experiment: MIC, test-tube dilution method
[25] = tested on: Proteus vulg.; experiment: MIC, test-tube dilution method
[26] = tested on: Enterobacter sp.; experiment: Freedom from cloudiness in Muller-Hinton broth; format: cell-based; conditions: 100 μg/ml, 24 hours
[27] = tested on: Diplococcus pneumoniae sp.; experiment: Freedom from cloudiness in Muller-Hinton broth; format: cell-based; conditions: 100 μg/ml, 24 hours
[28] = tested on: E.coli 14; experiment: Freedom from cloudiness in Muller-Hinton broth; format: cell-based; conditions: 100 μg/ml, 24 hours
[29] = tested on: Corynebacterium pyogenes M; experiment: Freedom from cloudiness in Muller-Hinton broth; format: cell-based; conditions: 100 μg/ml, 24 hours
[30] = tested on: Enterococcus sp.; experiment: Freedom from cloudiness in Muller-Hinton broth; format: cell-based; conditions: 100 μg/ml, 24 hours
[31] = tested on: Brucella sp.; format: cell-based; conditions: 100 μg/ml, 24 hours
[32] = tested on: Shigella sp.; experiment: Freedom from cloudiness in Muller-Hinton broth; format: cell-based; conditions: 100 μg/ml, 24 hours
Description: (§2) The compounds of the invention are also active against other genera of bacteria. This is shown by the following experiment, which was carried out with the compound of Example 1.
(§3) The compound of Example 1 was diluted to 100 μg/ml with Muller-Hinton nutrient broth, with the addition of 0.1% glucose. The nutrient solution in each case contained 1 × 10^5 to 2 × 10^5 bacteria per milliliter. The test tubes containing this mixture was incubated for 24 hours in each case and the degree of cloudiness was subsequently determined.

[33] = tested on: Pasteurella psuedotuberculosis; experiment: Freedom from cloudiness in Muller-Hinton broth; format: cell-based; conditions: 100 μg/ml, 24 hours
Description: as §2, §3

[34] = tested on: Salmonella sp.; experiment: Freedom from cloudiness in Muller-Hinton broth; format: cell-based; conditions: 100 μg/ml, 24 hours
Description: as §2, §3

[35] = tested on: Klebsiella 63; experiment: Freedom from cloudiness in Muller-Hinton broth; format: cell-based; conditions: 100 μg/ml, 24 hours
[36] = tested on: Staphylococcus aureus 133; experiment: Freedom from cloudiness in Muller-Hinton broth; format: cell-based; conditions: 100 μg/ml, 24 hours
[37] = tested on: Proteus morg.; experiment: MIC, test-tube dilution method
[38] = tested on: Bacteroides sp.; experiment: Freedom from cloudiness in Muller-Hinton broth; format: cell-based; conditions: 100 μg/ml, 24 hours
[39] = tested on: Proteus vulgaris 1017; experiment: Freedom from cloudiness in Muller-Hinton broth; format: cell-based; conditions: 100 μg/ml, 24 hours
[40] = tested on: E.coli B; experiment: MIC, test-tube dilution method; format: cell-based
[41] = tested on: Clostridium tetani; format: cell-based; conditions: 100 μg/ml, 24 hours
[42] = tested on: Lactobacillus sp.; experiment: Freedom from cloudiness in Muller-Hinton broth; format: cell-based; conditions: 100 μg/ml, 24 hours
[43] = tested on: Staph.aureus 133; experiment: MIC, test-tube dilution method

## CC1CN(C(=O)N[C@@H](C(=O)N[C@@H]2C(=O)N3[C@@H]2SC(C)(C)[C@@H]3C(=O)O)c2ccccc2)NC1=O (single isomer, unassigned) [Example 11 C, sodium D(-) -α-[(3-oxo-4-methyl-pyrazolidin-1-yl)-carbonylamino]-benzylpenicillin]
[1]
  MIC: 16 - 64 μ/ml

## CC1(C)S[C@@H]2[C@H](NC(=O)[C@H](NC(=O)N3NC(=O)CC3c3ccccc3)c3ccccc3)C(=O)N2[C@H]1C(=O)O (single isomer, unassigned) [Example 14, sodium D(-)-α-[(3-oxo-5-phenyl-pyrazolidin-1-yl)-carbonylamino]-benzylpenicillin]
[1]
  MIC: 4 - 16 μ/ml

## CC1CN(C(=O)N[C@@H](C(=O)N[C@@H]2C(=O)N3[C@@H]2SC(C)(C)[C@@H]3C(=O)O)c2ccccc2)NC1=O (single isomer, unassigned) [free penicillic acid, D(-)-α-[(3-oxo-4-methyl-pyrazolidin-1-yl)-carbonylamino]-benzylpenicillin]
[2]; ethyl acetate
  solubility in ethyl acetate: sparingly soluble
[2]; water
  solubility in water: sparingly soluble

## CC1(C)S[C@@H]2[C@H](NC(=O)[C@H](N)c3ccccc3)C(=O)N2[C@H]1C(=O)O [Ampicillin, α-aminobenzylpenicillin, reference compound]
[1]
  MIC: > 400 μ/ml
[3]
  MIC: > 400 μ/ml

## CC1(C)S[C@@H]2[C@H](NC(=O)C(C(=O)O)c3ccccc3)C(=O)N2[C@H]1C(=O)O (stereo partly drawn) [Carbenicillin, reference compound]
[1]
  MIC: 200 μ/ml
[3]
  MIC: > 200 μ/ml

## Cc1cn(C(=O)N[C@@H](C(=O)N[C@@H]2C(=O)N3[C@@H]2SC(C)(C)[C@@H]3C(=O)O)c2ccccc2)[nH]c1=O [Example 1 B, sodium D(-)-α-[(4-methyl-5-oxo-3-pyrazolin-2-yl)-carbonylamino]-benzylpenicillin]
[4]
  Freedom from cloudiness: free of cloudiness
[5]
  Freedom from cloudiness: free of cloudiness
[6]
  Freedom from cloudiness: free of cloudiness
[7]
  Freedom from cloudiness: free of cloudiness
[8]
  Freedom from cloudiness: free of cloudiness
[9]
  Freedom from cloudiness: free of cloudiness
[10]
  Freedom from cloudiness: free of cloudiness
[11]
  Freedom from cloudiness: free of cloudiness
[12]
  Freedom from cloudiness: free of cloudiness
[13]
  ED50 after 24 hours: 40,000 units per kg
[14]
  ED50 after 24 hours: 200,000 units per kg
[15]
  Freedom from cloudiness: free of cloudiness
[16]
  MIC: 128 U/ml
[17]
  Freedom from cloudiness: free of cloudiness
[18]
  Freedom from cloudiness: free of cloudiness
[19]
  MIC: 32 U/ml
[20]
  Freedom from cloudiness: free of cloudiness
[21]
  ED50 after 24 hours: 75,000 units per kg
[22]
  ED50 after 24 hours: 100,000 units per kg
[23]
  Freedom from cloudiness: free of cloudiness
[24]
  MIC: 1 U/ml
[25]
  MIC: 128 U/ml
[26]
  Freedom from cloudiness: free of cloudiness
[27]
  Freedom from cloudiness: free of cloudiness
[28]
  Freedom from cloudiness: free of cloudiness
[29]
  Freedom from cloudiness: free of cloudiness
[30]
  Freedom from cloudiness: free of cloudiness
[1]
  MIC: 8 μ/ml
[31]
  Freedom from cloudiness: free of cloudiness
[32]
  Freedom from cloudiness: free of cloudiness
[33]
  Freedom from cloudiness: free of cloudiness
[34]
  Freedom from cloudiness: free of cloudiness
[35]
  Freedom from cloudiness: free of cloudiness
[3]
  MIC: 8 μ/ml
[36]
  Freedom from cloudiness: free of cloudiness
[37]
  MIC: 128 U/ml
[38]
  Freedom from cloudiness: free of cloudiness
[39]
  Freedom from cloudiness: free of cloudiness
[40]
  MIC: 32 U/ml
[41]
  Freedom from cloudiness: free of cloudiness
[42]
  Freedom from cloudiness: free of cloudiness
[43]
  MIC: 0.5 U/ml

## CC1(C)S[C@@H]2[C@H](NC(=O)[C@H](NC(=O)n3cc(-c4ccccc4)c(=O)[nH]3)c3ccccc3)C(=O)N2[C@H]1C(=O)O [Example 2 C, sodium D(-)-α-[(4-phenyl-5-oxo-3-pyrazolin-2-yl)-carbonylamino]-penzylpenicillin]
[1]
  MIC: 4 μ/ml
[3]
  MIC: 4 μ/ml

## Cc1cn(C(=O)N[C@@H](C(=O)N[C@@H]2C(=O)N3[C@@H]2SC(C)(C)[C@@H]3C(=O)O)c2ccc(O)cc2)[nH]c1=O [Example 8, Sodium D(-)-α-[(4-methyl-5-oxo-3-pyrazolin-2-yl)-carbonylamino]-p-hydroxybenzylpenicillin]
[1]
  MIC: 8 μ/ml
[3]
  MIC: 8 - 16 μ/ml

## Cc1cn(C(=O)N[C@@H](C(=O)N[C@@H]2C(=O)N3[C@@H]2SC(C)(C)[C@@H]3C(=O)O)C2=CCC=CC2)[nH]c1=O [Example 9, Sodium D(-)-α-[(4-methyl-5-oxo-3-pyrazolin-2-yl)-carbonylamino]-α-(cyclohexa-1,4-dien-1-yl)-methylpenicillin]
[1]
  MIC: 16 - 32 μ/ml
[3]
  MIC: 8 - 16 μ/ml

## CC1(C)S[C@@H]2[C@H](NC(=O)[C@H](NC(=O)N3CCC(=O)N3)c3ccccc3)C(=O)N2[C@H]1C(=O)O [Example 10 C, Sodium D(-)-α-[(3-oxo-pyrazolidin-1-yl)-carbonylamino]-benzylpenicillin]
[1]
  MIC: 8 - 16 μ/ml
